From patent US8470835B2, “Pyrimidinecarboxamide derivatives as inhibitors of Syk kinase” (Glaxo Group Limited, priority 2009, dated 2013)
Where two headings read alike, the source gives them in different places. One block for each compound: values may come before it.

How the values were obtained:
[1] = test system: B lymphoma (BKS-2); conditions: mouse, in vivo; cited from earlier work
[2] = test system: Whole blood B cells; experiment: CD69 whole blood assay (6); type: cell-based; conditions: Homo sapiens, B-cell, all data points
Method: 6. CD69 Whole Blood Assay
Whole blood B cells are stimulated ex-vivo using anti-IgM. […] The subsequent autophosphorylation of Syk leads to initiation of a signalling cascade resulting in B cell activation as indicated by expression of the activation marker CD69 on the cell surface. CD20/CD69+ve whole blood B cells are detected by flow cytometry.
Stimulation of Whole Blood B Cells with Anti-IqM
100 μl heparinised human blood was added to a 5 ml polypropylene tube containing 1 μl appropriately diluted compound solution and incubated for 30 min at 37° C. with 5% CO2. B cells were stimulated with 10 μl Fab′2 fragments of goat anti-human IgM (67.5 μg/ml final) for a further 3.5 h under the conditions previously described. The red blood cells were lysed and all other cells fixed by the addition of 2 ml Lyse/Fix buffer for 10 min at room temperature.
The cells were stained using a cocktail of mouse anti-human CD20 FITC and mouse anti-human CD69 APC conjugated antibodies. CD20/CD69+ve B cells present in the sample were detected by flow cytometry.
Compound dilutions were prepared using the Biomek 2000 automated robotic pipetting system.

[3] = test system: Ramos B cells; experiment: Ramos pErk assay (4); type: cell-based; conditions: Homo sapiens, anti-IgM stimulated
Method: Ramos B cells (human B cells of Burkitt's Lymphoma) are stimulated using anti-IgM. […] As a result Erk is phosphorylated and following cell lysis is detected by an immune capture assay.
Stimulation of Ramos Cells with Anti-IqM
Cells were plated at a density of 5×10^5/well in a volume of 25 μl assay medium (RPMI containing 10% heat inactivated foetal calf serum, 1% L-glutamine and 1% Penicillin/Streptomycin) in 96 v-well polypropylene plates. […] Cells are lysed by the addition of 55 μL 2×RIPA lysis buffer for 2 h at 4° C.
50 μl cell lysate was transferred to a 96 well MSD plate coated with anti-pErk1/2 (Thr/Thy: 202/204; 185/187) capture antibody and incubated for 16 hours at 4° C. The plate was washed and an anti-pErk detection antibody added (25 μl/well) for 2 h at room temperature. This was removed, 150 μL MSD read buffer added and the resultant electrochemiluminescence signal measured.

[4] = target: Recombinant human VEGFR2 (KDR) (Homo sapiens (Human), UniProt P35968); experiment: VEGFR2 (KDR) enzyme assay, TR-FRET kinase assay (3); type: biochemical; conditions: read-out: Vegfr enzyme assay (3) IC50
Recombinant human VEGFR2 (KDR), sequence (P35968 786-1356): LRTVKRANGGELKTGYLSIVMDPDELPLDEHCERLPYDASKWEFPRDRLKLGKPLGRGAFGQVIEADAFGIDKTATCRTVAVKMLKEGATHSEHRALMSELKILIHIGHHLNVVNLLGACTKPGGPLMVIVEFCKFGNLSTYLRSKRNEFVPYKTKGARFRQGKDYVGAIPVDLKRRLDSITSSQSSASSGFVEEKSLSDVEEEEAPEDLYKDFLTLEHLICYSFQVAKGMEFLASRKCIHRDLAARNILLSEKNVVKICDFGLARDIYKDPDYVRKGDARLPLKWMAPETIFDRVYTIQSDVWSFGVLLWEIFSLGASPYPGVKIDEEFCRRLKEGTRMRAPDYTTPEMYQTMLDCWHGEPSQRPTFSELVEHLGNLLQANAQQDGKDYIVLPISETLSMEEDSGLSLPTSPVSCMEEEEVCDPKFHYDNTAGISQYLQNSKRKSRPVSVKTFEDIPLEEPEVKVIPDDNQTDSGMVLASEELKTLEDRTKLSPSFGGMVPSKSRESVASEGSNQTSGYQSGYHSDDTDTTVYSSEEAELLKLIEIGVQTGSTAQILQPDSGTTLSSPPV
Method: VEGFR2 (KDR) Enzyme Assay—Time-resolved Fluorescence Resonance Energy Transfer Kinase Assay
Recombinant human VEGFR2 (KDR) intracellular domain (including the entire kinase domain) was expressed as a GST-6His-tagged protein*. The activity of VEGFR2 was assessed using a time-resolved fluorescence resonance energy transfer (TR-FRET) assay. Test compounds at the desired concentrations in 100% DMSO or 100% DMSO vehicle were added in 0.1 μL to a Greiner low-volume, 384-well, black plate (#784076). The plate was centrifuged minimally at 1000 RPM for 1 min. to force all of the liquid to the bottom of the wells prior to addition of any assay reagents. *Purification of Recombinant GST-6His-VEGFR2
VEGFR2 (100 nM typically) was activated at room temperature for 20 min. in the presence of 100 mM HEPES, pH 7.5, 10 mM MgCl2, 100 μM ATP, 300 μM DTT, and 0.1 mg/mL BSA. […] The solution of activated VEGFR2 was diluted 100-fold in 200 mM HEPES, pH 7.5, 0.2 mg/mL BSA, and 0.6 mM DTT. The VEGFR2 catalyzed reaction was initiated by the addition of 5 μL of the diluted, activated VEGFR2. […] After incubation for 10 min. at room temperature, phosphorylation of the biotinylated peptide substrate was measured as a ratio of specific 665 nm energy transfer signal to reference europium 615 nm signal using a Viewlux 1430 ultraHTS Microplate Imager (PerkinElmer, Turku, Finland).

[5] = test system: allergic rhinitis; conditions: phase II; cited from earlier work
[6] = test system: allergic rhinitis; conditions: dosed intranasally; cited from earlier work
[7] = test system: patients with relapsed or refractory B-Cell non-Hodgkin's lymphoma (NHL); conditions: cited from earlier work

SMILES: COc1cc(/C=C/C(=O)CC(=O)/C=C/c2ccc(O)c(OC)c2)ccc1O [curcumin]
tumour burden as measured by the total splenocyte number [1]: significant reduction of tumour burden

IC50 ([2]; read-out: CD69 whole blood assay (6) IC50): 500 nM | IC50 ([2]; read-out: CD69 whole blood assay (6) pIC50 (converted)): 501 nM | IC50 ([3]; read-out: RAMOS pErk assay (4) IC50): 32 nM | IC50 ([3]; read-out: RAMOS pErk assay (4) pIC50 (converted)): 31.6 nM | IC50 [4]: 6.3 µM
SMILES: Cc1cccc(Nc2nc(N[C@@H]3CCCC[C@@H]3N)ncc2C(N)=O)c1 [Reference example 1]

SMILES: Oc1cccc(Nc2ncc(F)c(Nc3cccc(O)c3)n2)c1 [Example R112]
efficacy versus placebo [5]: lack of efficacy versus placebo | change in PGD2 [6]: statistically significant decrease | clinical safety [6]: safe across a range of indicators

SMILES: COc1cc(Nc2ncc(F)c(Nc3ccc4c(n3)N(COP(=O)(O)O)C(=O)C(C)(C)O4)n2)cc(OC)c1OC [Example R788, fostamatinib disodium]
clinical efficacy ([7]; patients with DLBCL and CLL/SLL): therapeutic benefit | tolerability in patients ([7]; relapsed or refractory B-Cell NHL): well-tolerated
